Test results reported in PMC8415707 (Frontiers in Pharmacology, 2021).
No end group written: not given here.

Key:
[1] = test system: Bacillus subtilis CMCC 63501; experiment: microbe, parasite or virus in culture; type: cell-based
Method: (§1) The antimicrobial activity of FM-CATH was measured using two-fold dilution method as reported previously by us ([Ye et al., 2020]). Microorganisms bought from Guangdong Institute of Microbiology were cultured in Muller-Hinton (MH) broth at 37°C to exponential phase and subsequently diluted with fresh MH broth to reach 10^6 CFU/ml of density. An equal volume of microbial inoculums in 96-well plates was incubated with different concentrations of FM-CATH at 37°C for 14 h. The absorbance at 600 nm was measured by a microplate spectrophotometer (Infinite M1000 Pro, Tecan Company, Switzerland) to calculate the minimal inhibitory concentration (MIC) values. […] Ampicillin and polymyxin B were used as positive controls.

[2] = test system: Candida albicans ATCC 10231; experiment: microbe, parasite or virus in culture; type: cell-based
Method: as §1

[3] = test system: Propionibacterium acnes ATCC 6919; experiment: microbe, parasite or virus in culture; type: cell-based
Method: as §1

[4] = test system: Pseudomonas aeruginosa ATCC 27853; experiment: microbe, parasite or virus in culture; type: cell-based
Method: as §1

[5] = test system: Escherichia coli ATCC 25922; type: cell-based; details: ATCC 25922, 14 h
Method: The antimicrobial activity of FM-CATH was measured using two-fold dilution method as reported previously by us ([Ye et al., 2020]). Microorganisms bought from Guangdong Institute of Microbiology were cultured in Muller-Hinton (MH) broth at 37°C to exponential phase and subsequently diluted with fresh MH broth to reach 10^6 CFU/ml of density. An equal volume of microbial inoculums in 96-well plates was incubated with different concentrations of FM-CATH at 37°C for 14 h. The absorbance at 600 nm was measured by a microplate spectrophotometer (Infinite M1000 Pro, Tecan Company, Switzerland) to calculate the minimal inhibitory concentration (MIC) values.

[6] = test system: A549; experiment: Cytotoxicity by MTT; type: cell-based; details: A549, 24 h, 2.5-40 μM tested, n = 3; read-out: IC50 (proliferation, MTT)
Method: (§2) Three tumor cell lines (A549, HepG2, and MDA-MB-231) and two normal mammalian cell lines (MH-S and MDCK) were seeded in 96-well plates at a density of 5,000 cells per well. […] The supernatant was removed and DMSO was added before the absorbance at 490 nm was measured.

[7] = test system: HepG2; experiment: Cytotoxicity by MTT; type: cell-based; details: HepG2, 24 h, 2.5-40 μM tested, n = 3; read-out: IC50 (proliferation, MTT)
Method: as §2

[8] = test system: MDCK; experiment: Cytotoxicity by MTT; type: cell-based; details: 24 h, 2.5-40 μM tested, n = 3, read-out: IC50 (proliferation, MTT)
Method: as §2

[9] = test system: MH-S; details: 24 h, 2.5-40 μM
Method: as §2

[10] = test system: MDA-MB-231; details: MDA-MB-231, 24 h, 2.5-40 μM
Method: as §2

[11] = test system: mouse erythrocytes; details: 40 μM, 2% mouse erythrocyte suspension in TBS, room temperature, 2 h, absorbance 540 nm
Method: Hemolytic assay was carried out with fresh blood from mouse heart as reported in our previous article with minor modification ([Chai et al., 2021]). […] 1% Triton X-100 and PBS were applied as the positive and negative control, respectively. The absorbance of the supernatant at 540 nm was measured with a microplate spectrophotometer. The hemolysis rate was calculated using the following formula: percentage hemolysis = (ODsample—ODPBS)/(ODTriton—ODPBS) × 100%.

[12] = test system: Staphylococcus aureus ATCC 25923; experiment: Antimicrobial assay (MIC, two-fold dilution); type: cell-based; details: MH broth, 10^6 CFU/ml, 37°C, 14 h, absorbance 600 nm
Method: as §1

[13] = Isothermal titration calorimetry, binding to LPS; set-up: species or system Escherichia coli O55:B5; details: ITC, 1 mM peptide titrated into 50 μM LPS, 50 mM PBS pH 7.2, 25°C, single-site model
Method: ITC assay was carried out to investigate the thermodynamics of interactions between peptides and LPS or LTA using MicroCal PEAQ-ITC (Malvern; United Kingdom). 50 mM of PBS (pH 7.2) was used to prepare stock solutions of peptide, LPS, and LTA. […] In LTA binding experiment, 100 μM LTA in the syringe was titrated into 280 μL of 50 μM FM-CATH in the cell with the condition described above. Instrument was operated in high feedback mode. After the heats derived from dilution were subtracted, the equilibrium disassociation constant (K D) and the enthalpy change (ΔH) were analyzed by fitting to a single-site binding model using the MicroCal Origin software. The Gibb’s free energy change (ΔG) and entropy change (ΔS) were obtained from the basic thermodynamic equations, respectively.

[14] = two-fold dilution, MH broth, 10^6 CFU/ml, 37°C, 14 h, absorbance 600 nm

Question: With LKTKALNKLKQKLQAVGNLIGSVIKG [FM-CATH] as the compound, how does the MIC ([1]; CMCC 63501, 14 h) read?
Answer: The MIC was 12.5 µM.

Question: And the MIC ([2]; ATCC 10231, 14 h)?
Answer: Its MIC is 6.25 µM.

Question: And the MIC ([3]; ATCC 6919, 14 h)?
Answer: The MIC was 6.25 µM.

Question: And the MIC ([4]; ATCC 27853, 14 h)?
Answer: Its MIC is 50 µM.

Question: And the MIC [5]?
Answer: Its MIC is 6.25 µM.

Question: And the IC50 [6]?
Answer: The IC50 was 11.7 µM.

Question: What about the IC50 [7] of the same compound?
Answer: The IC50 was 33.4 µM.

Question: What about the IC50 [8] of the same compound?
Answer: Its IC50 is 337 µM.

Question: And the “cytotoxicity (MTT)” value [9]?
Answer: Its value is “very low cytotoxicity”.

Question: And the “cytotoxicity (MTT)” value [10]?
Answer: The value was “very low cytotoxicity”.

Question: And the hemolytic activity [11]?
Answer: The hemolytic activity was “almost no hemolytic activity”.

Question: For `CC1(C)S[C@@H]2[C@H](NC(=O)[C@H](N)c3ccccc3)C(=O)N2[C@H]1C(=O)O` [Ampicillin], which MIC ([1]; Bacillus subtilis, CMCC63501, 14 h) is on record?
Answer: The MIC was greater than 100 µM.

Question: What about the MIC ([2]; Candida albicans, ATCC10231, 14 h) of the same compound?
Answer: The MIC was greater than 100 µM.

Question: What about the MIC ([3]; Cutibacterium acnes, ATCC6919, 14 h) of the same compound?
Answer: Its MIC is greater than 100 µM.

Question: And the MIC ([4]; Pseudomonas aeruginosa, ATCC27853, 14 h)?
Answer: The MIC was greater than 100 µM.

Question: What does the source list for Polymyxin B?
Answer: MIC [1, 14]: 25 µM; MIC [2, 14]: 25 µM; MIC [3, 14]: 6.25 µM; MIC [4, 14]: 50 µM; MIC [12]: >100 µM; Kd [13]: 0.414 µM; ∆H [13]: 5.9 ± 0.156 kcal/mol
